In US20110294853A1, “Bis Aromatic Compounds for Use in the Treatment of Inflammation” (priority 2008, published 2011):

What follows are compounds tested against T1, Recombinant human LTC4 synthase (Homo sapiens, UniProt Q16873) (assay: In vitro assay of LTC4 synthase inhibition (HPLC or HTRF detection of LTC4)). Details: inhibitor concentration 10 μM; percentage inhibitions of LTC4.
T1 construct: made in house; host or cells: Pichia pastoris ('Piccia pastoralis' [sic])
T1 sequence (Q16873 1-150): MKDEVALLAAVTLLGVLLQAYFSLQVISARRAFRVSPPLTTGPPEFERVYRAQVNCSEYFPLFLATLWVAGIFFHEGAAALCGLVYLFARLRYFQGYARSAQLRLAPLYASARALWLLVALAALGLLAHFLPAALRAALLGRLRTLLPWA
Type: biochemical
Description: In the assay LTC4 synthase catalyses the reaction where the substrate LTA4 methyl ester is converted to the corresponding LTC4 methyl ester. Recombinant human LTC4 synthase is expressed in Piccia pastoralis and the purified enzyme is dissolved in 25 mM Tris-buffer pH 7.8 and stored at −20° C. The assay is performed in phosphate buffered saline (PBS) pH 7.4, supplemented with 5 mM glutathione (GSH). The reaction is terminated by addition of acetonitrile/MeOH/acetic acid (50/50/1). The assay is performed at rt in 96-well plates. Analysis of the formed LTC4 methyl ester is performed with reversed phase HPLC (Waters 2795 utilizing an Onyx Monolithic C18 column). The mobile phase consists of acetonitrile/MeOH/H2O (32.5/30/37.5) with 1% acetic acid pH adjusted with NH3 to pH 5.6, and absorbance measured at 280 nm with a Waters 2487 UV-detector.
The following is added chronologically to each well: • 1. 50 μL assay buffer, PBS with 5 mM GSH. • 2. 0.5 μL inhibitor in DMSO. • 3. 2 μL LTC4 synthase in PBS. The total protein concentration in this solution is 0.025 mg/mL. Incubation of the plate at room temperature for 10 minutes. • 4. 0.5 μL LTA4 methyl ester. Incubation of the plate at rt for 1 min. • 5. 50 μL stop solution. • 80 μL of the incubation mixture is analysed with HPLC.
Alternatively HTRF detection of LTC4 can be used:
In the assay, LTC4 synthase catalyses the reaction where the substrate LTA4 is converted to LTC4. Recombinant human LTC4 synthase is expressed in Piccia pastoralis and the purified enzyme is dissolved in 25 mM Tris-buffer pH 7.8 supplemented with 0.1 mM glutathione (GSH) and stored at −80° C. The assay is performed in phosphate buffered saline (PBS) pH 7.4 and 5 mM GSH in 384-well plates.
The following is added chronologically to each well:
1. 48 μL LTC4 synthase in PBS with 5 mM GSH. The total protein concentration in this solution is 0.5 μg/mL. 2. 1 μL inhibitor in DMSO (final concentration 10 μM). 3. Incubation of the plate at rt for 10 min. 4. 1 μL LTA4 (final concentration 2.5 μM). 5. Incubation of the plate at rt for 5 min. 6. 10 μl of the incubation mixture is analysed using HTRF detection.

Row | Structure (SMILES) | inhibition at 10 µM [%]
1 | COc1ccc(C(=O)Nc2ccc(CCc3ccc(NC(=O)c4cccc(C(F)(F)F)c4)c(C(=O)O)c3)cc2C(=O)O)cc1 [2:1, 5-{2-[3-Carboxy-4-(4-methoxybenzoylamino)phenyl]ethyl}-2-(3-trifluoromethylbenzoylamino)benzoic acid] | 87
2 | CC(C)(C)c1ccc(C(=O)Nc2ccc(CCc3ccc(NC(=O)c4cccc(C(F)(F)F)c4)c(C(=O)O)c3)cc2C(=O)O)cc1 [2:2, 5-{2-[3-Carboxy-4-(4-tert-butylbenzoylamino)-phenyl]ethyl}-2-(3-trifluoromethylbenzoylamino)benzoic acid] | 100
3 | O=C(Nc1ccc(CCc2ccc(NC(=O)c3ccc(C(F)(F)F)cc3)c(C(=O)O)c2)cc1)c1cccc(C(F)(F)F)c1 [2:3, 2-(4-Trifluoromethylbenzoylamino)-5-{2-[4-(3-trifluoromethylbenzoylamino)-phenyl]-ethyl}benzoic acid] | 85
4 | O=C(Nc1ccc(CCc2ccc(NC(=O)c3cccc(C(F)(F)F)c3)c(C(=O)O)c2)cc1C(=O)O)c1ccc(C(F)(F)F)cc1 [2:4, 5-{2-[3-Carboxy-4-(4-trifluoromethyl-benzoylamino)-phenyl]ethyl}-2-(3-trifluoromethylbenzoylamino)benzoic acid] | 98
5 | O=C(Nc1ccc(C#Cc2ccc(NC(=O)c3ccc(C(F)(F)F)cc3)c(C(=O)O)c2)cc1)c1cccc(C(F)(F)F)c1 [2:5, 2-(4-Trifluoromethylbenzoylamino)-5-[4-(3-trifluoromethylbenzoylamino)-phenylethynyl]-benzoic acid] | 89
6 | CCCCc1ccc(C(=O)Nc2ccc(OCc3ccc(NC(=O)c4cccc(Cl)c4)c(C(=O)O)c3)cc2C(=O)O)cc1 [3:1, 2-(4-Butylbenzoylamino)-5-[3-carboxy-4-(3-chlorobenzoylamino)benzyloxy]-benzoic acid] | 100
7 | O=C(Nc1ccc(COc2ccc(NC(=O)c3cccc(Cl)c3)c(C(=O)O)c2)cc1C(=O)O)c1cccc(Cl)c1 [3:2, 2-(3-Chlorobenzoylamino)-5-[3-carboxy-4-(3-chlorobenzoylamino)-benzyloxy]-benzoic acid] | 100
8 | CCCCc1ccc(C(=O)Nc2ccc(NC(=O)c3ccc(NC(=O)c4ccc(OC(C)C)cc4)cc3)cc2C(=O)O)cc1 [4:1, 2-(4-Butylbenzoylamino)-5-[4-(4-isopropoxy-benzoylamino)benzoyl-amino]-benzoic acid] | 79
9 | CCCCc1ccc(C(=O)Nc2ccc(NC(=O)c3ccc(NC(=O)c4ccccc4)cc3)cc2C(=O)O)cc1 [4:2, 5-(4-Benzoylaminobenzoylamino)-2-(4-butylbenzoylamino)benzoic acid] | 96
10 | CCCCc1ccc(C(=O)Nc2ccc(NC(=O)c3ccc(NS(=O)(=O)c4cccc(Cl)c4C)cc3)cc2C(=O)O)cc1 [4:3, 2-(4-Butylbenzoylamino)-5-[4-(3-chloro-2-methylbenzenesulfonylamino)-benzoylamino]-benzoic acid] | 100
11 | O=C(O)c1cc(NS(=O)(=O)c2ccc(Oc3ccccc3)cc2)ccc1NS(=O)(=O)c1ccc(OC(F)(F)F)cc1 [5:1, 5-(4-Phenoxyphenylsulfonamido)-2-(4-(trifluoromethoxy)phenylsulfonamido)benzoic acid] | 100
12 | CCCCc1ccc(S(=O)(=O)Nc2ccc(NS(=O)(=O)c3ccc(Oc4ccccc4Cl)cc3)cc2C(=O)O)cc1 [5:3, 2-(4-Butylphenylsulfonamido)-5-(4-(2-chloro-phenoxy)-phenylsulfonamido)benzoic acid] | 98
13 | CCCCc1ccc(S(=O)(=O)Nc2ccc(NS(=O)(=O)c3ccc(Oc4ccccc4OC)cc3)cc2C(=O)O)cc1 [5:4, 2-(4-Butylphenylsulfonamido)-5-(4-(2-methoxy-phenoxy)phenylsulfonamido)benzoic acid] | 100
14 | CCCCOc1ccc(S(=O)(=O)Nc2ccc(NS(=O)(=O)c3ccc(Oc4ccccc4Cl)cc3)cc2C(=O)O)cc1 [5:5, 2-(4-Butoxyphenylsulfonamido)-5-(4-(2-chloro-phenoxy)-phenylsulfonamido)benzoic acid] | 99
15 | CCCCOc1ccc(S(=O)(=O)Nc2ccc(NCc3cccc(Oc4ccc(C(C)(C)C)cc4)c3)cc2C(=O)O)cc1 [6:1, 2-(4-Butoxyphenylsulfonamido)-5-(3-(4-tert-butylphenoxy)benzylamino)benzoic acid] | 100
16 | CCCCOc1ccc(S(=O)(=O)Nc2ccc(NCc3cccc(OCc4ccccc4Cl)c3)cc2C(=O)O)cc1 [6:2, 2-(4-Butoxyphenylsulfonamido)-5-(3-(2-chlorobenzyloxy)benzylamino)benzoic acid] | 100
17 | O=C(O)c1cc(-c2ccc(NS(=O)(=O)c3ccccc3)c(C(=O)O)c2)ccc1NS(=O)(=O)c1ccccc1 [Example 1:2, 4,4′-bis(phenylsulfonamido)biphenyl-3,3′-dicarboxylic acid] | 92
18 | CC(=O)Oc1ccc(C(=O)Nc2ccc(-c3ccc(NC(=O)c4ccc(OC(C)=O)cc4)c(C(=O)O)c3)cc2C(=O)O)cc1 [Example 1:12, 4,4′-bis(4-acetoxybenzamido)biphenyl-3,3′-dicarboxylic acid] | 97

Second part, the compound after the results:

Row | inhibition at 10 µM [%] | Structure (SMILES)
19 | 88 | O=C(Nc1ccc(-c2ccc(NC(=O)c3cccc(Cl)c3)c(C(=O)O)c2)cc1C(=O)O)c1cccc(Cl)c1 [Example 1:3, 4,4′-bis(3-chlorobenzamido)biphenyl-3,3′-dicarboxylic acid]
20 | 99 | O=C(Nc1cccc(Cl)c1)Nc1ccc(-c2ccc(NC(=O)Nc3cccc(Cl)c3)c(C(=O)O)c2)cc1C(=O)O [Example 1:4, 4,4′-bis(3-(3-chlorophenyl)ureido)biphenyl-3,3′-dicarboxylic acid]
21 | 69 | O=C(O)c1cc(-c2ccc(NS(=O)(=O)c3cccnc3)c(C(=O)O)c2)ccc1NS(=O)(=O)c1cccnc1 [Example 1:5, 4,4′-bis(pyridine-3-sulfonamido)biphenyl-3,3′-dicarboxylic acid]
22 | 100 | CC(C)(C)c1ccc(C(=O)Nc2ccc(-c3ccc(NC(=O)c4ccc(C(C)(C)C)cc4)c(C(=O)O)c3)cc2C(=O)O)cc1 [Example 1:6, 4,4′-bis(4-tert-butylbenzamido)biphenyl-3,3′-dicarboxylic acid]
23 | 100 | O=C(Cc1ccc(Cl)cc1)Nc1ccc(-c2ccc(NC(=O)Cc3ccc(Cl)cc3)c(C(=O)O)c2)cc1C(=O)O [Example 1:7, 4,4′-bis(2-(4-chlorophenyl)acetamido)biphenyl-3,3′-dicarboxylic acid]
24 | 100 | Nc1ccccc1C(=O)Nc1ccc(-c2ccc(NC(=O)c3ccccc3N)c(C(=O)O)c2)cc1C(=O)O [Example 1:8, 4,4′-bis(2-aminobenzamido)biphenyl-3,3′-dicarboxylic acid]
25 | 89 | Cc1ccc(S(=O)(=O)Nc2ccc(-c3ccc(NS(=O)(=O)c4ccc(C)cc4)c(C(=O)O)c3)cc2C(=O)O)cc1 [Example 1:9, 4,4′-bis(4-methylphenylsulfonamido)biphenyl-3,3′-dicarboxylic acid]
26 | 98 | O=C(O)c1cc(-c2ccc(NC(=O)c3cccc4ccccc34)c(C(=O)O)c2)ccc1NC(=O)c1cccc2ccccc12 [Example 1:10, 4,4′-bis(1-naphthamido)biphenyl-3,3′-dicarboxylic acid]
27 | 95 | O=C(Nc1ccc(-c2ccc(NC(=O)c3ccccc3)c(C(=O)O)c2)cc1C(=O)O)c1ccccc1 [Example 1:11, 4,4′-bis(benzamido)biphenyl-3,3′-dicarboxylic acid]
28 | 100 | CCCCc1ccc(S(=O)(=O)Nc2ccc(NS(=O)(=O)c3ccc(Oc4ccccc4)cc3)cc2C(=O)O)cc1 [Example 5:2, 2-(4-Butylphenylsulfonamido)-5-(4-phenoxyphenylsulfonamido)-benzoic acid]
